Assay results as given in patent publication US8431565B2 (priority 2007, dated 2013).

Each compound was assayed against T1, rat CB2 receptor (rCB2) (Rattus norvegicus, UniProt Q9QZN9).
T1 sequence (Q9QZN9 1-360): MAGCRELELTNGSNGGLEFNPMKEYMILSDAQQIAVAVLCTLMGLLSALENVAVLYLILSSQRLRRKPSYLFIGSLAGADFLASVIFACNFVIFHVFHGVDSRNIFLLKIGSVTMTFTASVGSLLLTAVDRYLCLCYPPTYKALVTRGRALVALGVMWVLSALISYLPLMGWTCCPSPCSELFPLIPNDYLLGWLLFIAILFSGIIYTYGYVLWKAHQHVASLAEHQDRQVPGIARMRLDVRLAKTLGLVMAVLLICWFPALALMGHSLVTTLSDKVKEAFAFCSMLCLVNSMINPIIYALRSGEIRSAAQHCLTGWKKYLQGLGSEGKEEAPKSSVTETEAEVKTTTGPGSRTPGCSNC

| SMILES | EC50 [nM] |
| --- | --- |
| Cc1ccc(-c2nc(C(=O)N[C@H](c3nc(C)no3)C(C)(C)C)c3n2CCCN(C)C3)c(F)c1 [Compound 522, (S)-N-(2,2-dimethyl-1-(3-methyl-1,2,4-oxadiazol-5-yl)propyl)-3-(2-fluoro-4-methylphenyl)-8-methyl-6,7,8,9-tetrahydro-5H-imidazo[1,5-a][1,4]diazepine-1-carboxamide] | 10 to 100 |
| CC(C)CN1CCn2c(-c3ccccc3)nc(C(=O)NC3CCCCC3)c2C1 [Compound 165, N-cyclohexyl-7-isobutyl-3-phenyl-5,6,7,8-tetrahydroimidazo[1,5-a]pyrazine-1-carboxamide] | 0.1 to 10 |
| CNC(=O)[C@@H](NC(=O)c1nc(-c2ccccc2)n2c1CN(S(=O)(=O)C(C)C)CC2)C(C)(C)C [Compound 94, (S)-N-(3,3-dimethyl-1-(methylamino)-1-oxobutan-2-yl)-7-(isopropylsulfonyl)-3-phenyl-5,6,7,8-tetrahydrimidazo[1,5-a]pyrazine-1-carboxamide] | 10 to 100 |
| CNC(=O)[C@@H](NC(=O)c1nc(-c2ccccc2)n2c1CN(c1cncc(Cl)n1)CC2)C(C)(C)C [Compound 300, (S)-7-(6-chloropyrazin-2-yl)-N-(3,3-dimethyl-1-(methylamino)-1-oxobutan-2-yl)-3-phenyl-5,6,7,8-tetrahydroimidazo[1,5-a]pyrazine-1-carboxamide] | 10 to 100 |
| COC(=O)[C@@H](NC(=O)c1nc(-c2ccc(C)cc2F)n2c1CNCCC2)C(C)(C)C [Compound 466] | 10 to 100 |
| COC(=O)N1CCn2c(-c3ccc(Cl)cc3)nc(C(=O)N[C@H](CO)C(C)(C)C)c2C1 [Compound 184, (S)-methyl 3-(4-chlorophenyl)-1-(1-hydroxy-3,3-dimethylbutan-2-ylcarbamoyl)-5,6-dihydroimidazo[1,5-a]pyrazine-7(8H)-carboxylate] | 10 to 100 |
| CNC(=O)[C@@H](NC(=O)c1nc(-c2ccccc2)n2c1CN(CC1CC1)CC2)C(C)(C)C [Compound 56, (S)-7-(cyclopropylmethyl)-N-(3,3-dimethyl-1-(methylamino)-1-oxobutan-2-yl)-3-phenyl-5,6,7,8-tetrahydroimidazo[1,5-a]pyrazine-1-carboxamide] | 10 to 100 |
| CNC(=O)[C@@H](NC(=O)c1nc(-c2ccccc2)n2c1CN(S(=O)(=O)C1CC1)CC2)C(C)(C)C [Compound 100, (S)-7-(cyclopropylsulfonyl)-N-(3,3-dimethyl-1-(methylamino)-1-oxobutan-2-yl)-3-phenyl-5,6,7,8-tetrahydroimidazo[1,5-a]pyrazine-1-carboxamide] | 10 to 100 |
| COC(=O)N1CCn2c(-c3ccccc3)nc(C(=O)NC3C4(C)CCC(C4)C3(C)C)c2C1 (stereo not shown) [Compound 178, methyl 3-phenyl-1-(1,3,3-trimethylbicyclo[2.2.1]heptan-2-ylcarbamoyl)-5,6-dihydroimidazo[1,5-a]pyrazine-7(8H)-carboxylate] | 10 to 100 |
| CNC(=O)[C@@H](NC(=O)c1nc(-c2cc(Cl)ccc2F)n2c1CN(C)CC2)C(C)(C)C [Compound 246, (S)-3-(5-chloro-2-fluorophenyl)-N-(3,3-dimethyl-1-(methylamino)-1-oxobutan-2-yl)-7-methyl-5,6,7,8-tetrahydroimidazo[1,5-a]pyrazine-1-carboxamide] | 10 to 100 |
| CNC(=O)[C@@H](NC(=O)c1nc(-c2ccccc2)n2c1CN(CCC(C)(C)C)CC2)C(C)(C)C [Compound 54, (S)-N-(3,3-dimethyl-1-(methylamino)-1-oxobutan-2-yl)-7-(3,3-dimethylbutyl)-3-phenyl-5,6,7,8-tetrahydroimidazo[1,5-a]pyrazine-1-carboxamide] | 10 to 100 |
| CC(C)CN1CCn2c(-c3ccccc3)nc(C(=O)N[C@H](CO)C(C)(C)C)c2C1 [Compound 60, (S)-N-(1-hydroxy-3,3-dimethylbutan-2-yl)-7-isobutyl-3-phenyl-5,6,7,8-tetrahydroimidazo[1,5-a]pyrazine-1-carboxamide] | 10 to 100 |
| CNC(=O)[C@@H](NC(=O)c1nc(-c2ccc(F)c(C)c2)n2c1CNCC2)C(C)(C)C [Compound 7, (S)-N-(3,3-dimethyl-1-(methylamino)-1-oxobutan-2-yl)-3-(4-fluoro-3-methylphenyl)-5,6,7,8-tetrahydroimidazo[1,5-a]pyrazin-1-carboxamide] | 10 to 100 |
| CNC(=O)[C@@H](NC(=O)c1nc(-c2ccc(Cl)cc2F)n2c1CN(C)CC2)C(C)(C)C [Compound 241, (S)-3-(4-chloro-2-fluorophenyl)-N-(3,3-dimethyl-1-(methylamino)-1-oxobutan-2-yl)-7-methyl-5,6,7,8-tetrahydroimidazo[1,5-a]pyrazine-1-carboxamide] | 0.1 to 10 |
| CC(C)CN1CCn2c(-c3ccccc3)nc(C(=O)NCC3CCOCC3)c2C1 [Compound 167, 7-isobutyl-3-phenyl-N-((tetrahydro-2H-pyran-4-yl)methyl)-5,6,7,8-tetrahydroimidazo[1,5-a]pyrazine-1-carboxamide] | 10 to 100 |
| CNC(=O)[C@@H](NC(=O)c1nc(/C=C/Cc2ccccc2)n2c1CN(C)CCC2)C(C)(C)C [Compound 458, (S,E)-N-(3,3-dimethyl-1-(methylamino)-1-oxobutan-2-yl)-8-methyl-3-(3-phenylprop-1-enyl)-6,7,8,9-tetrahydro-5H-imidazo[1,5-a][1,4]diazepine-1-carboxamide] | 10 to 100 |
| CNC(=O)[C@@H](NC(=O)c1nc(-c2ccccc2)n2c1CN(S(=O)(=O)c1ccccc1[N+](=O)[O-])CC2)C(C)(C)C [Compound 97, (S)-N-(3,3-dimethyl-1-(methylamino)-1-oxobutan-2-yl)-7-(2-nitrophenylsulfonyl)-3-phenyl-5,6,7,8-tetrahydroimidazo[1,5-a]pyrazine-1-carboxamide] | 10 to 100 |
| CCc1nc(C(=O)N[C@H](C(=O)NC)C(C)(C)C)c2n1CCN(C)C2 [Compound 310, (S)-N-(3,3-dimethyl-1-(methylamino)-1-oxobutan-2-yl)-3-ethyl-7-methyl-5,6,7,8-tetrahydroimidazo[1,5-a]pyrazine-1-carboxamide] | 10 to 100 |
| CC(C)CN1CCn2c(-c3ccccc3)nc(C(=O)N[C@H](C(=O)N(C)C)C(C)(C)C)c2C1 [Compound 80, (S)-N-(1-(dimethylamino)-3,3-dimethyl-1-oxobutan-2-yl)-7-isobutyl-3-phenyl-5,6,7,8-tetrahydroimidazo[1,5-a]pyrazine-1-carboxamide] | 10 to 100 |
| CNC(=O)[C@@H](NC(=O)c1nc(-c2ccccc2)n2c1CN(S(C)(=O)=O)CC2)C(C)(C)C [Compound 92, (S)-N-(3,3-dimethyl-1-(methylamino)-1-oxobutan-2-yl)-7-(methylsulfonyl)-3-phenyl-5,6,7,8-tetrahydroimidazo[1,5-a]pyrazine-1-carboxamide] | 10 to 100 |
| CNC(=O)[C@@H](NC(=O)c1nc(C2=CCNCC2)n2c1CN(C)CC2)C(C)(C)C [Compound 274, (S)-N-(3,3-dimethyl-1-(methylamino)-1-oxobutan-2-yl)-7-methyl-3-(1,2,3,6-tetrahydropyridin-4-yl)-5,6,7,8-tetrahydroimidazo[1,5-a]pyrazine-1-carboxamide] | 10 to 100 |
| CC(C)CCNC(=O)c1nc(-c2ccc(Cl)cc2)n2c1CN(C(=O)C1CC1)CC2 [Compound 131, 3-(4-chlorophenyl)-7-(cyclopropanecarbonyl)-N-isopentyl-5,6,7,8-tetrahydroimidazo[1,5-a]pyrazine-1-carboxamide] | 10 to 100 |
